Values of other authors, collected in patent publication US20220249374A1, “RADIOTHERAPEUTIC MICROSPHERES” (priority 2019, published 2022).

System: HCC
Settings: patients with HCC too advanced for resection or localized ablation

CNC(=O)c1cc(Oc2ccc(NC(=O)Nc3ccc(Cl)c(C(F)(F)F)c3)cc2)ccn1 [Nexavar, sorafenib]
prolongation of survival: three
